Test results: patent US20120148595A1, “GABA-LINKED ANTHRACYCLINE-LIPID CONJUGATES” (Luitpold Pharmaceuticals, Inc., priority 2009, published 2012)
Where two headings read alike, the source gives them in different places.

Key:
M109-Lung Tumor = M109-Lung Tumor Model (Table 5, second study with OOC-GABA-doxorubicin); assay type: in vivo, mouse
Text: (§1) The dosing schedule was Q3D×5.

tumor growth = assay: anti-tumor activity of GABA-linked conjugate compared to the unconjugated anticancer agent (model not given); assay type: in vivo; details: model not specified
Text: The anti-tumor activity of LOC-GABA-doxorubicin was studied in three tumor models.

[1] = tested on: Madison 109 (M109) mouse lung carcinoma
Experimental: In all of the following in vivo experiments, the parent compound, doxorubicin, was injected intravenously (i.v.) in saline, while the fatty acid conjugates of doxorubicin were injected i.v. in 10% Cremophor® EL-P/10% ethanol/80% saline. The dosing schedule was Q3D×5.
T-C in this assay is defined as the time in days for the drug-treated tumors to double their mass three times subtracted […] to double their mass three times.

HT-29 human colon tumor = assay: nude mouse xenograft model of the HT-29 human colon tumor; assay type: in vivo; details: nude mouse
Experimental: as §1
In the nude mouse xenograft model of the HT-29 human colon tumor (Table 3), doxorubicin produced a T-C delay of 15.3 days at the MTD dose of 6 mg/kg, whereas P-367 (LOC-GABA-doxorubicin) produced a T-C delay of 32 days at 50 mg/kg and 22 at 25 mg/kg. Note that the activity of the lowest dose of LOC-GABA-doxorubicin is approximately equivalent to the highest, MTD of doxorubicin itself.

[2] = tested on: MDA-MB-435 human breast tumor; assay: nude mouse xenograft model of the MDA-MB-435 human breast tumor; assay type: in vivo; details: nude mouse
Experimental: as §1
In the nude mouse xenograft model of the MDA-MB-435 human breast tumor (Table 4), doxorubicin produced a T-C delay of 14 days at the approximate MTD dose of 6 mg/kg (1/10 drug-related deaths). In the same model, LOC-GABA-doxorubicin produced a T-C delay of 13 days at 50 mg/kg (6/10 drug-related deaths) and 1.5 days at 25 mg/kg (0 drug-related deaths).

[3] = Toxicology: maximum tolerated dose, i.v. Q3D×5; details: mouse, in vivo, iv, i.v. 5 times on a once every three day schedule
Text: as §1

[4] = cited from earlier work

For `CCCCCCCC/C=C\CCCCCCCCOC(=O)NCCCC(=O)N[C@H]1C[C@H](O[C@H]2C[C@](O)(C(=O)CO)Cc3c(O)c4c(c(O)c32)C(=O)c2c(OC)cccc2C4=O)O[C@@H](C)[C@H]1O` [OOC-GABA-doxorubicin, oleyl alcohol-GABA-doxorubicin], the “Complete Regressions” value (M109-Lung Tumor; 50 mg/kg i.v. Q3D×5) was 0, the “Days Delay T-C” value (M109-Lung Tumor; 50 mg/kg i.v. Q3D×5) was 10.0 days and the “Drug-related Deaths” value (M109-Lung Tumor; 50 mg/kg i.v. Q3D×5) was 0/5. For the same compound, the “Complete Regressions” value (M109-Lung Tumor; 75 mg/kg i.v. Q3D×5) was 0, the “Days Delay T-C” value (M109-Lung Tumor; 75 mg/kg i.v. Q3D×5) was 8.9 days and the “Drug-related Deaths” value (M109-Lung Tumor; 75 mg/kg i.v. Q3D×5) was 0/5. For the same compound, the “Complete Regressions” value (M109-Lung Tumor; 100 mg/kg i.v. Q3D×5) was 0, the “Days Delay T-C” value (M109-Lung Tumor; 100 mg/kg i.v. Q3D×5) was 10.3 days and the “Drug-related Deaths” value (M109-Lung Tumor; 100 mg/kg i.v. Q3D×5) was 1/5. The “Complete Regressions” value (M109-Lung Tumor; 125 mg/kg i.v. Q3D×5) was 0, the “Drug-related Deaths” value (M109-Lung Tumor; 125 mg/kg i.v. Q3D×5) was 3/5 and the “anti-tumor activity compared to doxorubicin” value (M109-Lung Tumor; M109 mouse lung carcinoma model) was “superior anti-tumor activity”.

In the case of `CC/C=C\C/C=C\C/C=C\C/C=C\C/C=C\C/C=C\CCC(=O)NCCCC(=O)O[C@H]1C[C@H]2OC[C@@]2(OC(C)=O)[C@H]2[C@H](OC(=O)c3ccccc3)[C@]3(O)C[C@H](OC(=O)[C@H](O)[C@@H](NC(=O)c4ccccc4)c4ccccc4)C(C)=C([C@@H](OC(C)=O)C(=O)[C@]12C)C3(C)C`, the “anti-tumor activity compared to the unconjugated drug” value (tumor growth) is reported as “did not show superior anti-tumor activity”.

For `COc1cccc2c1C(=O)c1c(O)c3c(c(O)c1C2=O)C[C@@](O)(C(=O)CO)C[C@@H]3O[C@H]1C[C@H](N)[C@H](O)[C@H](C)O1` [Doxorubicin, reference compound], the “Complete Regressions” value ([1]; 1 mg/kg i.v. Q3D×5) was 0, the “Drug-related Deaths” value ([1]; 1 mg/kg i.v. Q3D×5) was 0/5 and the “Tumor Growth Delay T-C” value ([1]; 1 mg/kg i.v. Q3D×5) was 2.6 days. For the same compound, the “Complete Regressions” value ([1]; 2 mg/kg i.v. Q3D×5) was 0, the “Drug-related Deaths” value ([1]; 2 mg/kg i.v. Q3D×5) was 0/5 and the “Tumor Growth Delay T-C” value ([1]; 2 mg/kg i.v. Q3D×5) was 2.2 days. For the same compound, the “Complete Regressions” value ([1]; 4 mg/kg i.v. Q3D×5) was 0, the “Drug-related Deaths” value ([1]; 4 mg/kg i.v. Q3D×5) was 0/5 and the “Tumor Growth Delay T-C” value ([1]; 4 mg/kg i.v. Q3D×5) was 4.0 days. For the same compound, the “Complete Regressions” value ([1]; 6 mg/kg i.v. Q3D×5) was 0, the “Tumor Growth Delay T-C” value ([1]; 6 mg/kg i.v. Q3D×5, time for tumors to double their mass three times, treated vs vehicle) was 5.7 days and the complete responses ([1]; at any dose) was “no complete responses”. The “Complete Regressions” value (HT-29 human colon tumor; 2 mg/kg i.v. Q3D×5) was 0, the “Days Delay T-C” value (HT-29 human colon tumor; 2 mg/kg i.v. Q3D×5) was 2.2 days and the “Drug-related Deaths” value (HT-29 human colon tumor; 2 mg/kg i.v. Q3D×5) was 0/10. For the same compound, the “Complete Regressions” value (HT-29 human colon tumor; 4 mg/kg i.v. Q3D×5) was 0, the “Days Delay T-C” value (HT-29 human colon tumor; 4 mg/kg i.v. Q3D×5) was 4.0 days and the “Drug-related Deaths” value (HT-29 human colon tumor; 4 mg/kg i.v. Q3D×5) was 0/10. The “Complete Regressions” value (HT-29 human colon tumor; 6 mg/kg i.v. Q3D×5) was 0, the “Days Delay T-C” value (HT-29 human colon tumor; 6 mg/kg i.v. Q3D×5) was 5.7 days and the “Drug-related Deaths” value (HT-29 human colon tumor; 6 mg/kg i.v. Q3D×5) was 0/10. For the same compound, the “Days Delay T-C” value (HT-29 human colon tumor; 6 mg/kg i.v. Q3D×5, listed as doxorubicin) was 15.3 days, the “Complete Regressions” value ([2]; 2 mg/kg i.v. Q3D×5) was 0 and the “Days Delay T-C” value ([2]; 2 mg/kg i.v. Q3D×5) was 0.0 days. The “Drug-related Deaths” value ([2]; 2 mg/kg i.v. Q3D×5) was 0/5, the “Complete Regressions” value ([2]; 4 mg/kg i.v. Q3D×5) was 0 and the “Days Delay T-C” value ([2]; 4 mg/kg i.v. Q3D×5) was 6.6 days. The “Drug-related Deaths” value ([2]; 4 mg/kg i.v. Q3D×5) was 0/5, the “Complete Regressions” value ([2]; 6 mg/kg i.v. Q3D×5) was 0 and the “Days Delay T-C” value ([2]; 6 mg/kg i.v. Q3D×5) was 14 days. For the same compound, the “Drug-related Deaths” value ([2]; 6 mg/kg i.v. Q3D×5) was 1/10, the “Complete Regressions” value (M109-Lung Tumor; 2 mg/kg i.v. Q3D×5) was 0 and the “Days Delay T-C” value (M109-Lung Tumor; 2 mg/kg i.v. Q3D×5) was 0.0 days. For the same compound, the “Drug-related Deaths” value (M109-Lung Tumor; 2 mg/kg i.v. Q3D×5) was 0/5, the “Complete Regressions” value (M109-Lung Tumor; 4 mg/kg i.v. Q3D×5) was 0 and the “Days Delay T-C” value (M109-Lung Tumor; 4 mg/kg i.v. Q3D×5) was 1.4 days. For the same compound, the “Drug-related Deaths” value (M109-Lung Tumor; 4 mg/kg i.v. Q3D×5) was 0/5, the “Complete Regressions” value (M109-Lung Tumor; 6 mg/kg i.v. Q3D×5) was 0 and the “Days Delay T-C” value (M109-Lung Tumor; 6 mg/kg i.v. Q3D×5) was 0.9 days. For the same compound, the “Drug-related Deaths” value (M109-Lung Tumor; 6 mg/kg i.v. Q3D×5) was 0/5, the “Complete Regressions” value (M109-Lung Tumor; 8 mg/kg i.v. Q3D×5) was 0 and the “Days Delay T-C” value (M109-Lung Tumor; 8 mg/kg i.v. Q3D×5) was 4.6 days. The “Drug-related Deaths” value (M109-Lung Tumor; 8 mg/kg i.v. Q3D×5) was 0/5, the MTD [3] was 6 mg/kg and the MTD ([3]; nude) was ~6 mg/kg. For the same compound, the incidence of cardiomyopathy ([4]; cumulative dose 550 mg/m^2) was 7%, the incidence of cardiomyopathy ([4]; cumulative dose 600 mg/m^2) was 15% and the incidence of cardiomyopathy ([4]; cumulative dose 700 mg/m^2) was 30%.
